According to ChEMBL document CHEMBL1201861, “Genomics of Drug Sensitity in Cancer screening data, Wellcome Trust Sanger Institute”:
pIC50: −log10 of the molar value.

system: DOHH-2; assay: cells; assay type: functional, cell-based, Homo sapiens; details: Homo sapiens, DOHH-2;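 further: growth inhibition of human DOHH-2 cells, read out with a cell viability assay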
Description: SANGER: Inhibition of human DOHH-2 cell growth in a cell viability assay.

SMILES | pIC50
CC1=C(/C=C/C(C)=C/C=C/C(C)=C/C(=O)O)C(C)(C)CCC1 [TRETINOIN] | < 5.00
CO[C@@H]1[C@H](N(C)C(=O)c2ccccc2)C[C@H]2O[C@]1(C)n1c3ccccc3c3c4c(c5c6ccccc6n2c5c31)C(=O)NC4 [MIDOSTAURIN] | < 6.29

system: DU-4475; assay: cells; assay type: functional, cell-based, Homo sapiens; details: Homo sapiens, DU-4475
Description: SANGER: Inhibition of human DU-4475 cell growth in a cell viability assay.

SMILES | pIC50
CC1=C(/C=C/C(C)=C/C=C/C(C)=C/C(=O)O)C(C)(C)CCC1 [TRETINOIN] | < 5.00

system: DoTc2-4510; assay: cells; assay type: functional, cell-based; details: Homo sapiens

SMILES | pIC50
CC1=C(/C=C/C(C)=C/C=C/C(C)=C/C(=O)O)C(C)(C)CCC1 [TRETINOIN] | < 5.00

system: ES4; assay: cells; assay type: functional, cell-based, Homo sapiens; details: Homo sapiens, ES4;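 further: growth inhibition of human ES4 cells, read out by a cell viability assay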
Description: SANGER: Inhibition of human ES4 cell growth in a cell viability assay.

SMILES | pIC50
CC1=C(/C=C/C(C)=C/C=C/C(C)=C/C(=O)O)C(C)(C)CCC1 [TRETINOIN] | < 5.00

system: HCE-T; assay: cells; assay type: functional, cell-based, Homo sapiens; details: Homo sapiens, HCE-T;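 further: cell viability assay read-out, reporting inhibition of HCE-T cell growth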
Description: SANGER: Inhibition of human HCE-T cell growth in a cell viability assay.

SMILES | pIC50
CC1=C(/C=C/C(C)=C/C=C/C(C)=C/C(=O)O)C(C)(C)CCC1 [TRETINOIN] | < 5.00

system: HD-MY-Z; assay: cells; assay type: functional, cell-based, Homo sapiens; details: Homo sapiens, HD-MY-Z;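 further: growth inhibition of HD-MY-Z cells, read out with a cell viability assay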
Description: SANGER: Inhibition of human HD-MY-Z cell growth in a cell viability assay.

SMILES | pIC50
CC1=C(/C=C/C(C)=C/C=C/C(C)=C/C(=O)O)C(C)(C)CCC1 [TRETINOIN] | < 5.00

system: HH; assay: cells; assay type: functional, cell-based, Homo sapiens; details: Homo sapiens, HH
Description: SANGER: Inhibition of human HH cell growth in a cell viability assay.

SMILES | pIC50
CC1=C(/C=C/C(C)=C/C=C/C(C)=C/C(=O)O)C(C)(C)CCC1 [TRETINOIN] | 6.71

system: IA-LM; assay: cells; assay type: functional, cell-based; details: Homo sapiens;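 further: cell viability assay measuring growth inhibition of human IA-LM cells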
Description: SANGER: Inhibition of human IA-LM cell growth in a cell viability assay.

SMILES | pIC50
CC1=C(/C=C/C(C)=C/C=C/C(C)=C/C(=O)O)C(C)(C)CCC1 [TRETINOIN] | < 5.00

system: IST-MES1; assay: cells; assay type: functional, cell-based, Homo sapiens; details: Homo sapiens, IST-MES1;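 further: growth inhibition of IST-MES1 cells, measured with a cell viability assay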
Description: SANGER: Inhibition of human IST-MES1 cell growth in a cell viability assay.

SMILES | pIC50
CC1=C(/C=C/C(C)=C/C=C/C(C)=C/C(=O)O)C(C)(C)CCC1 [TRETINOIN] | < 5.00

system: IST-SL1; assay: cells; assay type: functional, cell-based, Homo sapiens; details: Homo sapiens, IST-SL1;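 further: growth inhibition of human IST-SL1 cells, read out with a cell viability assay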
Description: SANGER: Inhibition of human IST-SL1 cell growth in a cell viability assay.

SMILES | pIC50
CC1=C(/C=C/C(C)=C/C=C/C(C)=C/C(=O)O)C(C)(C)CCC1 [TRETINOIN] | < 5.00

system: JAR; assay: cells; assay type: functional, cell-based, Homo sapiens; details: Homo sapiens, JAR;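 further: growth inhibition of human JAR cells determined with a cell viability assay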
Description: SANGER: Inhibition of human JAR cell growth in a cell viability assay.

SMILES | pIC50
CC1=C(/C=C/C(C)=C/C=C/C(C)=C/C(=O)O)C(C)(C)CCC1 [TRETINOIN] | < 5.00

system: JVM-2; assay: cells; assay type: functional, cell-based, Homo sapiens; details: Homo sapiens, JVM-2;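 further: growth inhibition of JVM-2 cells determined by a cell viability assay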
Description: SANGER: Inhibition of human JVM-2 cell growth in a cell viability assay.

SMILES | pIC50
CC1=C(/C=C/C(C)=C/C=C/C(C)=C/C(=O)O)C(C)(C)CCC1 [TRETINOIN] | 5.93

system: KM-H2; assay: cells; assay type: functional, cell-based, Homo sapiens; details: Homo sapiens, KM-H2;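 further: growth inhibition of KM-H2 cells, read out by a cell viability assay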
Description: SANGER: Inhibition of human KM-H2 cell growth in a cell viability assay.

SMILES | pIC50
CC1=C(/C=C/C(C)=C/C=C/C(C)=C/C(=O)O)C(C)(C)CCC1 [TRETINOIN] | < 5.00

system: KURAMOCHI; assay: cells; assay type: functional, cell-based, Homo sapiens; details: Homo sapiens, KURAMOCHI;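 further: growth inhibition of KURAMOCHI cells, read out with a cell viability assay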
Description: SANGER: Inhibition of human KURAMOCHI cell growth in a cell viability assay.

SMILES | pIC50
CC1=C(/C=C/C(C)=C/C=C/C(C)=C/C(=O)O)C(C)(C)CCC1 [TRETINOIN] | < 5.00

system: L-363; assay: cells; assay type: functional, cell-based, Homo sapiens; details: Homo sapiens, L-363
Description: SANGER: Inhibition of human L-363 cell growth in a cell viability assay.

SMILES | pIC50
CC1=C(/C=C/C(C)=C/C=C/C(C)=C/C(=O)O)C(C)(C)CCC1 [TRETINOIN] | 5.68

system: LAMA-84; assay: cells; assay type: functional, cell-based, Homo sapiens; details: Homo sapiens, LAMA-84;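 further: growth inhibition of LAMA-84 cells, read out with a cell viability assay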
Description: SANGER: Inhibition of human LAMA-84 cell growth in a cell viability assay.

SMILES | pIC50
CC1=C(/C=C/C(C)=C/C=C/C(C)=C/C(=O)O)C(C)(C)CCC1 [TRETINOIN] | 6.00

system: LB2241-RCC; assay: cells; assay type: functional, cell-based, Homo sapiens; details: Homo sapiens, LB2241-RCC;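 further: cell viability assay measuring how strongly the cultured human renal carcinoma line is prevented from growing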
Description: SANGER: Inhibition of human LB2241-RCC cell growth in a cell viability assay.

SMILES | pIC50
CC1=C(/C=C/C(C)=C/C=C/C(C)=C/C(=O)O)C(C)(C)CCC1 [TRETINOIN] | < 5.00

system: LOX IMVI; assay: cells; assay type: functional, cell-based, Homo sapiens; details: Homo sapiens, LOX IMVI
Description: SANGER: Inhibition of human LOXIMVI cell growth in a cell viability assay.

SMILES | pIC50
CC1=C(/C=C/C(C)=C/C=C/C(C)=C/C(=O)O)C(C)(C)CCC1 [TRETINOIN] | < 5.00

system: LS-513; assay: cells; assay type: functional, cell-based, Homo sapiens; details: Homo sapiens, LS-513
Description: SANGER: Inhibition of human LS-513 cell growth in a cell viability assay.

SMILES | pIC50
CC1=C(/C=C/C(C)=C/C=C/C(C)=C/C(=O)O)C(C)(C)CCC1 [TRETINOIN] | < 5.00

system: MHH-PREB-1; assay: cells; assay type: functional, cell-based, Homo sapiens; details: Homo sapiens, MHH-PREB-1;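 further: cell viability assay measuring inhibition of proliferation of human MHH-PREB-1 cells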
Description: SANGER: Inhibition of human MHH-PREB-1 cell growth in a cell viability assay.

SMILES | pIC50
CC1=C(/C=C/C(C)=C/C=C/C(C)=C/C(=O)O)C(C)(C)CCC1 [TRETINOIN] | < 5.00

system: MV4-11; assay: cells; assay type: functional, cell-based, Homo sapiens, MV-4-11; details: Homo sapiens, MV4-11;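 further: cell viability readout measuring growth inhibition of human MV-4-11 cells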
Description: SANGER: Inhibition of human MV-4-11 cell growth in a cell viability assay.

SMILES | pIC50
CC1=C(/C=C/C(C)=C/C=C/C(C)=C/C(=O)O)C(C)(C)CCC1 [TRETINOIN] | 7.68

system: MZ7-mel; assay: cells; assay type: functional, cell-based, Homo sapiens; details: Homo sapiens, MZ7-mel;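 further: growth inhibition of human MZ7-mel cells, measured by a cell viability assay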
Description: SANGER: Inhibition of human MZ7-mel cell growth in a cell viability assay.

SMILES | pIC50
CC1=C(/C=C/C(C)=C/C=C/C(C)=C/C(=O)O)C(C)(C)CCC1 [TRETINOIN] | < 5.00

system: Mo; assay: cells; assay type: functional, cell-based, Homo sapiens; details: Homo sapiens, Mo
Description: SANGER: Inhibition of human Mo-T cell growth in a cell viability assay.

SMILES | pIC50
CC1=C(/C=C/C(C)=C/C=C/C(C)=C/C(=O)O)C(C)(C)CCC1 [TRETINOIN] | < 5.00

system: NCI-H1155; assay: cells; assay type: functional, cell-based, Homo sapiens; details: Homo sapiens, NCI-H1155;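 further: cell growth inhibition measured by a viability assay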
Description: SANGER: Inhibition of human NCI-H1155 cell growth in a cell viability assay.

SMILES | pIC50
CC1=C(/C=C/C(C)=C/C=C/C(C)=C/C(=O)O)C(C)(C)CCC1 [TRETINOIN] | < 5.00

system: NCI-H1299; assay: cells; assay type: functional, cell-based; details: Homo sapiens;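 further: growth inhibition of human NCI-H1299 cells, read out by a cell viability assay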
Description: SANGER: Inhibition of human NCI-H1299 cell growth in a cell viability assay.

SMILES | pIC50
CC1=C(/C=C/C(C)=C/C=C/C(C)=C/C(=O)O)C(C)(C)CCC1 [TRETINOIN] | < 5.00

system: NCI-H1650; assay: cells; assay type: functional, cell-based, Homo sapiens; details: Homo sapiens, NCI-H1650;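 further: growth inhibition of human NCI-H1650 cells measured by a cell viability assay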
Description: SANGER: Inhibition of human NCI-H1650 cell growth in a cell viability assay.

SMILES | pIC50
CC1=C(/C=C/C(C)=C/C=C/C(C)=C/C(=O)O)C(C)(C)CCC1 [TRETINOIN] | < 5.00

system: NCI-H226; assay: cells; assay type: functional, cell-based, Homo sapiens; details: Homo sapiens, NCI-H226;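 further: cell viability read-out used to gauge growth inhibition of the cells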
Description: SANGER: Inhibition of human NCI-H226 cell growth in a cell viability assay.

SMILES | pIC50
CC1=C(/C=C/C(C)=C/C=C/C(C)=C/C(=O)O)C(C)(C)CCC1 [TRETINOIN] | < 5.00

system: NCI-H23; assay: cells; assay type: functional, cell-based, Homo sapiens; details: Homo sapiens, NCI-H23;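 further: cell viability assay measuring growth inhibition of NCI-H23 cells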
Description: SANGER: Inhibition of human NCI-H23 cell growth in a cell viability assay.

SMILES | pIC50
CC1=C(/C=C/C(C)=C/C=C/C(C)=C/C(=O)O)C(C)(C)CCC1 [TRETINOIN] | < 5.00

system: NCI-H720; assay: cells; assay type: functional, cell-based, Homo sapiens; details: Homo sapiens, NCI-H720;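 further: growth inhibition of human NCI-H720 cells determined by a cell viability assay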
Description: SANGER: Inhibition of human NCI-H720 cell growth in a cell viability assay.

SMILES | pIC50
CC1=C(/C=C/C(C)=C/C=C/C(C)=C/C(=O)O)C(C)(C)CCC1 [TRETINOIN] | 5.99

system: NCI-N87; assay: cells; assay type: functional, cell-based; details: Homo sapiens;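 further: growth inhibition of human NCI-N87 cells, read out with a cell viability assay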
Description: SANGER: Inhibition of human NCI-N87 cell growth in a cell viability assay.

SMILES | pIC50
CC1=C(/C=C/C(C)=C/C=C/C(C)=C/C(=O)O)C(C)(C)CCC1 [TRETINOIN] | < 5.00
CO[C@@H]1[C@H](N(C)C(=O)c2ccccc2)C[C@H]2O[C@]1(C)n1c3ccccc3c3c4c(c5c6ccccc6n2c5c31)C(=O)NC4 [MIDOSTAURIN] | < 6.29

system: SNU-5; assay: cells; assay type: functional, cell-based, Homo sapiens; details: Homo sapiens, SNU-5;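 further: cell viability readout used to measure growth inhibition in human NCI-SNU-5 cells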
Description: SANGER: Inhibition of human NCI-SNU-5 cell growth in a cell viability assay.

SMILES | pIC50
CC1=C(/C=C/C(C)=C/C=C/C(C)=C/C(=O)O)C(C)(C)CCC1 [TRETINOIN] | < 5.00

system: NH-12; assay: cells; assay type: functional, cell-based, Homo sapiens; details: Homo sapiens, NH-12;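 further: growth inhibition of NH-12 cells, read out with a cell viability assay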
Description: SANGER: Inhibition of human NH-12 cell growth in a cell viability assay.

SMILES | pIC50
CC1=C(/C=C/C(C)=C/C=C/C(C)=C/C(=O)O)C(C)(C)CCC1 [TRETINOIN] | < 5.00

system: ONS-76; assay: cells; assay type: functional, cell-based, Homo sapiens; details: Homo sapiens, ONS-76;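 further: growth inhibition of human ONS-76 cells, read out with a cell viability assay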
Description: SANGER: Inhibition of human ONS-76 cell growth in a cell viability assay.

SMILES | pIC50
CC1=C(/C=C/C(C)=C/C=C/C(C)=C/C(=O)O)C(C)(C)CCC1 [TRETINOIN] | < 5.00

system: OS-RC-2; assay: cells; assay type: functional, cell-based, Homo sapiens; details: Homo sapiens, OS-RC-2;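 further: growth inhibition of human OS-RC-2 cells, measured by a cell viability assay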
Description: SANGER: Inhibition of human OS-RC-2 cell growth in a cell viability assay.

SMILES | pIC50
CC1=C(/C=C/C(C)=C/C=C/C(C)=C/C(=O)O)C(C)(C)CCC1 [TRETINOIN] | < 5.00

system: RPMI-8866; assay: cells; assay type: functional, cell-based, Homo sapiens; details: Homo sapiens, RPMI-8866
Description: SANGER: Inhibition of human RPMI-8866 cell growth in a cell viability assay.

SMILES | pIC50
CC1=C(/C=C/C(C)=C/C=C/C(C)=C/C(=O)O)C(C)(C)CCC1 [TRETINOIN] | < 5.00

system: SBC-1; assay: cells; assay type: functional, cell-based, Homo sapiens; details: Homo sapiens, SBC-1;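 further: cell viability assay measuring growth inhibition of the SBC-1 cell line, IC50 being the concentration that halves growth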
Description: SANGER: Inhibition of human SBC-1 cell growth in a cell viability assay.

SMILES | pIC50
CC1=C(/C=C/C(C)=C/C=C/C(C)=C/C(=O)O)C(C)(C)CCC1 [TRETINOIN] | < 5.00

system: SCC-15; assay: cells; assay type: functional, cell-based, Homo sapiens; details: Homo sapiens, SCC-15;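 further: growth inhibition of SCC-15 cells, read out with a cell viability assay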
Description: SANGER: Inhibition of human SCC-15 cell growth in a cell viability assay.

SMILES | pIC50
CC1=C(/C=C/C(C)=C/C=C/C(C)=C/C(=O)O)C(C)(C)CCC1 [TRETINOIN] | 5.03
CO[C@@H]1[C@H](N(C)C(=O)c2ccccc2)C[C@H]2O[C@]1(C)n1c3ccccc3c3c4c(c5c6ccccc6n2c5c31)C(=O)NC4 [MIDOSTAURIN] | < 6.29

system: SK-N-FI; assay: cells; assay type: functional, cell-based, Homo sapiens; details: Homo sapiens, SK-N-FI;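 further: cell viability assay measuring growth inhibition of human SK-N-FI cells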
Description: SANGER: Inhibition of human SK-N-FI cell growth in a cell viability assay.

SMILES | pIC50
CC1=C(/C=C/C(C)=C/C=C/C(C)=C/C(=O)O)C(C)(C)CCC1 [TRETINOIN] | < 5.00

system: SK-PN-DW; assay: cells; assay type: functional, cell-based, Homo sapiens; details: Homo sapiens, SK-PN-DW;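 further: growth inhibition measured with a viability assay on these cells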
Description: SANGER: Inhibition of human SK-PN-DW cell growth in a cell viability assay.

SMILES | pIC50
CC1=C(/C=C/C(C)=C/C=C/C(C)=C/C(=O)O)C(C)(C)CCC1 [TRETINOIN] | < 5.00

system: SK-UT-1; assay: cells; assay type: functional, cell-based, Homo sapiens; details: Homo sapiens, SK-UT-1;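 further: growth inhibition of SK-UT-1 cells, measured by a cell viability assay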
Description: SANGER: Inhibition of human SK-UT-1 cell growth in a cell viability assay.

SMILES | pIC50
CC1=C(/C=C/C(C)=C/C=C/C(C)=C/C(=O)O)C(C)(C)CCC1 [TRETINOIN] | < 5.00
CO[C@@H]1[C@H](N(C)C(=O)c2ccccc2)C[C@H]2O[C@]1(C)n1c3ccccc3c3c4c(c5c6ccccc6n2c5c31)C(=O)NC4 [MIDOSTAURIN] | 6.48

system: 697; assay: cells; assay type: functional, cell-based, Homo sapiens; details: Homo sapiens
Description: SANGER: Inhibition of human 697 cell growth in a cell viability assay.

SMILES | pIC50
CC1=C(/C=C/C(C)=C/C=C/C(C)=C/C(=O)O)C(C)(C)CCC1 [TRETINOIN] | < 5.00

system: 8-MG-BA; assay: cells; assay type: functional, cell-based, Homo sapiens; details: Homo sapiens, 8-MG-BA;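 further: growth inhibition of 8-MG-BA cells, read out with a cell viability assay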
Description: SANGER: Inhibition of human 8-MG-BA cell growth in a cell viability assay.

SMILES | pIC50
CC1=C(/C=C/C(C)=C/C=C/C(C)=C/C(=O)O)C(C)(C)CCC1 [TRETINOIN] | < 5.00

system: A498; assay: cells; assay type: functional, cell-based, Homo sapiens; details: Homo sapiens, A498;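 further: growth inhibition of human A498 cells, read out with a cell viability assay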
Description: SANGER: Inhibition of human A498 cell growth in a cell viability assay.

SMILES | pIC50
CC1=C(/C=C/C(C)=C/C=C/C(C)=C/C(=O)O)C(C)(C)CCC1 [TRETINOIN] | < 5.00

system: ACN; assay: cells; assay type: functional, cell-based, Homo sapiens; details: Homo sapiens, ACN;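 further: growth inhibition of the human ACN cell line, read out via cell viability testing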
Description: SANGER: Inhibition of human ACN cell growth in a cell viability assay.

SMILES | pIC50
CC1=C(/C=C/C(C)=C/C=C/C(C)=C/C(=O)O)C(C)(C)CCC1 [TRETINOIN] | 5.78

system: BB30-HNC; assay: cells; assay type: functional, cell-based, Homo sapiens; details: Homo sapiens, BB30-HNC;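 further: growth inhibition of the cultured cell line, read out by a cell viability assay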
Description: SANGER: Inhibition of human BB30-HNC cell growth in a cell viability assay.

SMILES | pIC50
CC1=C(/C=C/C(C)=C/C=C/C(C)=C/C(=O)O)C(C)(C)CCC1 [TRETINOIN] | < 5.00
CO[C@@H]1[C@H](N(C)C(=O)c2ccccc2)C[C@H]2O[C@]1(C)n1c3ccccc3c3c4c(c5c6ccccc6n2c5c31)C(=O)NC4 [MIDOSTAURIN] | 6.49

system: C8166; assay: cells; assay type: functional, cell-based, Homo sapiens; details: Homo sapiens, C8166;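 further: growth inhibition of human C8166 cells measured by a cell viability assay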
Description: SANGER: Inhibition of human C8166 cell growth in a cell viability assay.

SMILES | pIC50
CC1=C(/C=C/C(C)=C/C=C/C(C)=C/C(=O)O)C(C)(C)CCC1 [TRETINOIN] | < 5.00

system: no-10; assay: cells; assay type: functional, cell-based, Homo sapiens; details: Homo sapiens;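 further: growth inhibition of no-10 cells, read out with a cell viability assay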
Description: SANGER: Inhibition of human no-10 cell growth in a cell viability assay.

SMILES | pIC50
CC1=C(/C=C/C(C)=C/C=C/C(C)=C/C(=O)O)C(C)(C)CCC1 [TRETINOIN] | < 5.00

system: CCRF-CEM; assay: cells; assay type: functional, cell-based, Homo sapiens; details: Homo sapiens, CCRF-CEM;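 further: inhibition of CCRF-CEM cell growth, measured by a cell viability assay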
Description: SANGER: Inhibition of human CCRF-CEM cell growth in a cell viability assay.

SMILES | pIC50
CC1=C(/C=C/C(C)=C/C=C/C(C)=C/C(=O)O)C(C)(C)CCC1 [TRETINOIN] | < 5.00
